# Source: article PMC6930500, “Structure–Activity Relationships of 7-Substituted Dimethyltyrosine-Tetrahydroisoquinoline Opioid Peptidomimetics” (Molecules, 2019)
# Tests used:
# [1] = target: T1, human DOR (Homo sapiens, UniProt P41143); test: [35S]-GTPγS binding stimulation, DOR; format: biochemical; details: mean (SEM), * n = 2; for EC50 DOR / EC50: CHO-human DOR membranes, dns = does not stimulate, average maximal stimulation <10% at up to 10 µM; for % Stimulation DOR: versus 10 µM standard agonist DPDPE, dns = average maximal stimulation <10% at up to 10 µM
# T1 construct: expressed in transfected cells; cell lines provided by Professor Lawrence Toll
# Method: (§1) Each novel compound was evaluated for binding to and stimulation of KOR, MOR, and DOR. Binding affinity (Ki) was determined by competitive displacement of [^3H]-diprenorphine, a non-selective opioid receptor antagonist with similar affinity for each of the three receptors. Potency (EC50) and efficacy, expressed as percent stimulation compared to a standard agonist at each receptor, were determined by a [^35S]-GTPγS binding assay.
# (§2) Membranes prepared from transfected Chinese Hamster Ovary cells stably expressing human KOR, human MOR, or human DOR were used for all assays. Cells were grown to confluence at 37 °C in 5% CO2 in 1:1 DMEM:F12 media with 10% v/v fetal bovine serum and 5% v/v penicillin/streptomycin. Membranes were prepared by washing confluent cells three times with ice cold phosphate-buffered saline (0.9% NaCl, 0.61 mM Na2HPO4, 0.38 mM KH2PO4, pH 7.4). Cells were detached from the plates by incubation in warm harvesting buffer (20 mM HEPES, 150 mM NaCl, 0.68 mM EDTA, pH 7.4) and pelleted by centrifugation at 200× g for 3 min. The cell pellet was suspended in ice-cold 50 mM Tris-HCl buffer, pH 7.4 and homogenized with a Tissue Tearor (Biospec Products, Inc, distributed by Cole-Parmer, Vernon Hills, IL, USA) for 20 s at setting 4. The homogenate was centrifuged at 20,000× g for 20 min at 4 °C, and the pellet was rehomogenized in 50 mM Tris-HCl pH 7.4 with a Tissue Tearor for 10 s at setting 2, followed by recentrifugation. The final pellet was resuspended in 50 mM Tris-HCl pH 7.4 and frozen in aliquots at −80 °C. Protein concentration was determined via Pierce BCA protein assay kit using bovine serum albumin as the standard.
# (§3) Agonist stimulation of KOR, MOR, and DOR by all test compounds was determined by [^35S]-guanosine 5′-O-[γ-thio]triphosphate ([^35S]-GTPγS) binding assays as previously reported. In a 96-well plate format, membranes from cells expressing opioid receptors as described above (10 µg of protein), [^35S]-GTPγS (0.1 nM), and guanosine diphosphate (30 µM) were incubated in GTPγS buffer (50 mM Tris-HCl, 100 mM NaCl, 5 mM MgCl2, 1 mM EDTA, pH 7.4) with various concentrations of test compound at 25 °C for 1 h. Basal stimulation was determined by incubation in the absence of any ligand. After incubation, membranes were filtered through Whatman GF/C 1.2 micron glass fiber filters and washed with GTPγS buffer with no EDTA. The radioactivity remaining on the filters was then quantified by liquid scintillation counting after saturation with EcoLume liquid scintillation cocktail in a Perkin-Elmer Microbeta 2450. Data are reported as percent stimulation compared to the effects of 10 µM standard agonists—U69,593 (KOR), DAMGO (MOR), or DPDPE (DOR). Percent stimulation and EC50 values were determined via nonlinear regression analysis using GraphPad Prism software from at least three separate assays performed in duplicate. Efficacy is expressed as percent stimulation relative to standard agonists.
# [2] = target: T2, human MOR (Homo sapiens, UniProt P35372); test: [3H]-diprenorphine competitive displacement binding, MOR; details: for Ki: membranes from CHO cells expressing human MOR, mean (SEM), n>=3 in duplicate
# T2 construct: expressed in transfected cells; cell lines provided by Professor Lawrence Toll
# Method: as §1, §2
# (§4) Binding affinities for all test compounds at KOR, MOR, and DOR were determined by competitive displacement of [^3H]-diprenorphine as previously reported. In a 96-well plate format, cell membranes (5–10 µg of protein) and [^3H]-diprenorphine (0.2 nM) were incubated in Tris-HCl buffer (50 mM, pH 7.4) with various concentrations of test compound at 25 °C for 1 h, allowing the mixture to reach equilibrium. Nonspecific binding was determined using the opioid antagonist naloxone (10 µM), and total binding was determined using vehicle in the absence of competitive ligand. After incubation, membranes were filtered through Whatman GF/C 1.2 micron glass fiber filters and washed with 50 mM Tris-HCl buffer. The radioactivity remaining on the filters was then quantified by liquid scintillation counting after saturation with EcoLume liquid scintillation cocktail in a Microbeta 2450 (Perkin-Elmer, Waltham, MA, USA). Binding affinity (Ki) values were calculated using the Cheng–Prusoff equation via nonlinear regression analysis using GraphPad Prism software from at least three separate binding assays performed in duplicate.
# [3] = target: T1, human DOR; test: [3H]-diprenorphine competitive displacement binding, DOR; details: membranes from CHO cells expressing human DOR; mean (SEM), n>=3 in duplicate
# Method: as §1, §2, §4
# [4] = target: T3, human KOR (Homo sapiens, UniProt P41145); test: [3H]-diprenorphine competitive displacement binding, KOR; details: for Ki: membranes from CHO cells expressing human KOR, mean (SEM), n>=3 in duplicate
# T3 construct: expressed in transfected cells; cell lines provided by Professor Lawrence Toll
# Method: as §1, §2, §4
# [5] = target: T3, human KOR; test: [35S]-GTPγS binding stimulation, KOR; format: biochemical; details: mean (SEM); for EC50 / EC50 KOR: CHO-human KOR membranes, * n = 2, dns = does not stimulate, average maximal stimulation <10% at up to 10 µM; for Emax / % Stimulation KOR: versus 10 µM standard agonist U69,593, dns = average maximal stimulation <10% at up to 10 µM
# Method: as §1, §2, §3
# [6] = target: T2, human MOR; test: [35S]-GTPγS binding stimulation, MOR; format: biochemical; details: for EC50: CHO-human MOR membranes, dns = does not stimulate, average maximal stimulation <10% at up to 10 µM; for EC50 / Emax: mean (SEM), * n = 2; for Emax: versus 10 µM standard agonist DAMGO, dns = average maximal stimulation <10% at up to 10 µM
# Method: as §1, §2, §3
Structure (SMILES),EC50 DOR [1],% Stimulation DOR [1],Ki [2],Ki [3],Ki [4],EC50 [5],Emax [5],EC50 [6],Emax [6],higher affinity for MOR than for DOR ([2]; ratio of Ki values),higher affinity for KOR than for DOR ([4]; ratio of Ki values),EC50 [1],selective for KOR and DOR over MOR ([4]; binding selectivity),"more potent at MOR (versus KOR) ([6]; ratio of EC50 values, GTPγS)",EC50 KOR [5],% Stimulation KOR [5],selectivity for MOR and DOR over KOR ([4]; binding selectivity)
"COc1cccc(Cc2ccc3c(c2)CN(C(=O)[C@@H](N)Cc2c(C)cc(O)cc2C)CC3)c1 [Compound 8e, (S)-2-amino-3-(4-hydroxy-2,6-dimethylphenyl)-1-(7-(3-methoxybenzyl)-3,4-dihydroisoquinolin-2(1H)-yl)propan-1-one]",dns,dns,2.7 nM,1.7 nM,3 nM,148 nM,74%,24 nM,48%,,,,,,,,
"Cc1cc(O)cc(C)c1C[C@H](N)C(=O)N1CCc2ccc(Cc3cccc(O)c3)cc2C1 [Compound 8f, (S)-2-amino-3-(4-hydroxy-2,6-dimethylphenyl)-1-(7-(3-hydroxybenzyl)-3,4-dihydroisoquinolin-2(1H)-yl)propan-1-one]",dns *,dns *,0.6 nM,1.4 nM,0.8 nM,148 nM,83%,18 nM,81%,,,,,,,,
"Cc1cc(O)cc(C)c1C[C@H](N)C(=O)N1CCc2ccc(Cc3ccncc3)cc2C1 [Compound 8k, (S)-2-amino-3-(4-hydroxy-2,6-dimethylphenyl)-1-(7-(pyridin-4-ylmethyl)-3,4-dihydroisoquinolin-2(1H)-yl)propan-1-one]",dns,dns,42 nM,2.6 nM,44 nM,1180 nM,44%,179 nM,28%,,,,,,,,
"Cc1cc(O)cc(C)c1C[C@H](N)C(=O)N1CCc2ccc(Cc3ccccc3O)cc2C1 [Compound 8b, (S)-2-amino-3-(4-hydroxy-2,6-dimethylphenyl)-1-(7-(2-hydroxybenzyl)-3,4-dihydroisoquinolin-2(1H)-yl)propan-1-one]",dns *,dns *,1.2 nM,2.5 nM,0.32 nM,11 nM,89%,43 nM,60%,two-fold,eight-fold,,,,,,
"Cc1cc(O)cc(C)c1C[C@H](N)C(=O)N1CCc2ccc(Cc3cccnc3)cc2C1 [Compound 8j, (S)-2-amino-3-(4-hydroxy-2,6-dimethylphenyl)-1-(7-(pyridin-3-ylmethyl)-3,4-dihydroisoquinolin-2(1H)-yl)propan-1-one]",dns,dns,5.4 nM,1.5 nM,56 nM,988 nM,40%,145 nM,23%,,,,,,,,
"Cc1cc(O)cc(C)c1C[C@H](N)C(=O)N1CCc2ccc(CN3CCc4ccccc43)cc2C1 [Compound 8y, (S)-2-amino-3-(4-hydroxy-2,6-dimethylphenyl)-1-(7-(indolin-1-ylmethyl)-3,4-dihydroisoquinolin-2(1H)-yl)propan-1-one]",dns *,dns *,2.2 nM,1.7 nM,2.6 nM,106 nM,66%,42 nM,65%,,,,,,,,
"Cc1cc(O)cc(C)c1C[C@H](N)C(=O)N1CCc2ccc(Cc3ccccc3C(F)(F)F)cc2C1 [Compound 8c, (S)-2-amino-3-(4-hydroxy-2,6-dimethylphenyl)-1-(7-(2-(trifluoromethyl)benzyl)-3,4-dihydroisoquinolin-2(1H)-yl)propan-1-one]",,24 (3) %,4.3 nM,4.9 nM,2.6 nM,173 nM,81%,53 nM,76%,,,342 nM,,,,,
"Cc1cc(O)cc(C)c1C[C@H](N)C(=O)N1CCc2ccc(Cc3cccc4ncccc34)cc2C1 [Compound 8t, (S)-2-amino-3-(4-hydroxy-2,6-dimethylphenyl)-1-(7-(quinolin-5-ylmethyl)-3,4-dihydroisoquinolin-2(1H)-yl)propan-1-one]",dns *,dns *,4.6 nM,1.2 nM,1.5 nM,58 nM,69%,54 nM,31%,,,,approximately 3 fold,equipotent,,,
"Cc1cc(O)cc(C)c1C[C@H](N)C(=O)N1CCc2ccc(CN3CCCCC3)cc2C1 [Compound 8l, (S)-2-amino-3-(4-hydroxy-2,6-dimethylphenyl)-1-(7-(piperidin-1-ylmethyl)-3,4-dihydroisoquinolin-2(1H)-yl)propan-1-one]",dns,dns,4.7 nM,87 nM,29 nM,,,845 nM,34%,,,,,,dns,dns,
"Cc1cc(O)cc(C)c1C[C@H](N)C(=O)N1CCc2ccc(CN3CCc4ccccc4C3)cc2C1 [Compound 8w, (S)-2-amino-1-(7-((3,4-dihydroisoquinolin-2(1H)-yl)methyl)-3,4-dihydroisoquinolin-2(1H)-yl)-3-(4-hydroxy-2,6-dimethylphenyl)propan-1-one]",dns *,dns *,0.6 nM,2.3 nM,42 nM,,,8.2 nM,85%,,,,,,dns,dns,18 fold
"Cc1cc(O)cc(C)c1C[C@H](N)C(=O)N1CCc2ccc(Cc3cncc4ccccc34)cc2C1 [Compound 8v, (S)-2-amino-3-(4-hydroxy-2,6-dimethylphenyl)-1-(7-(isoquinolin-4-ylmethyl)-3,4-dihydroisoquinolin-2(1H)-yl)propan-1-one]",,39 (7) %,1.4 nM,0.3 nM,0.73 nM,14 nM,71%,12 nM,81%,,,19 nM,,,,,
